Assay results: US9775878B2, “Methods for treating bacterial infections using oritavancin and polymyxins” (The Medicines Company, priority 2013, dated 2017)
Where two headings read alike, the source gives them in different places. One block for each compound: values may come before it.

Columns and labels:
[1] = system: Acinetobacter baumannii strains; test: Broth macrodilution MICs under conditions used for synergy time-kill assays; type: cell-based
[2] = system: Acinetobacter baumannii strains; test: Broth microdilution MIC of colistin in absence and presence of 0.002% polysorbate 80; type: cell-based; conditions: for Colistin MIC −P80: absence of polysorbate 80; for Colistin MIC +P80: presence of 0.002% polysorbate-80
Description: Broth microdilution MIC testing (CLSI M07-A9) was performed on the Acinetobacter baumannii ([…]) and 10 AB strains, including 8 MDRAB (resistant to ≧3 of the following: beta-lactams, gentamicin, fluoroquinolones and tetracycline; obtained from Eurofins Medinet Chantilly, Va.). The requirement of 0.002% polysorbate 80 (P-80) for testing oritavancin also necessitated the testing of COL in the presence of P80. Checkerboard assays were used to determine activity of antimicrobial combinations; fractional inhibitory concentration indices (FICI) were used to define synergy, indifference or antagonism. Broth macrodilution MICs were determined following conditions used for synergy time-kill assays. Synergy time-kill studies were performed following CLSI guidelines.
(§1) Minimum inhibitory concentrations (MICs). Broth microdilution MICs were determined according to CLSI (CLSI document M7-A9, 2013) guidelines with the exception that COL MICs were also determined in the presence of 0.002% polysorbate 80 (P80) since P80 was to be present in the combination tests because of its requirement for testing oritavancin. Broth macrodilution MICs were determined following conditions used for synergy time-kill assays.

[3] = system: Acinetobacter baumannii strains; test: Synergy time-kill assay; type: cell-based; conditions: concentration of the agent within the ORI+COL combination, ≧2 log CFU/mL decrease vs most active constituent at 24 h, 0.002% P80
Description: (§2) Broth microdilution MIC testing (CLSI M07-A9) was performed on the Acinetobacter baumannii (AB) reference strain ATCC 19606 (obtained from ATCC) and 10 AB strains, including 8 MDRAB (resistant to ≧3 of the following: beta-lactams, gentamicin, fluoroquinolones and tetracycline; obtained from Eurofins Medinet Chantilly, Va.). The requirement of 0.002% polysorbate 80 (P-80) for testing oritavancin also necessitated the testing of COL in the presence of P80. Checkerboard assays were used to determine activity of antimicrobial combinations; fractional inhibitory concentration indices (FICI) were used to define synergy, indifference or antagonism. Broth macrodilution MICs were determined following conditions used for synergy time-kill assays. Synergy time-kill studies were performed following CLSI guidelines.
Time-kill assays followed CLSI guidelines (NCCLS, CLSI document M26-A2, 1999) with the exception that 96 deep-well plates were used. Exponential-phase bacteria were diluted to approximately 5×10^5 colony-forming units (CFU)/mL and exposed to ORI or COL alone, or in combination in CAMHB containing 0.002% P80. Bacteria were enumerated by serial dilution plating. To prevent drug carryover during serial dilution plating, aliquots of the drug-challenged culture were added to an equal volume of 25 mg/mL activated charcoal suspension. […] All experiments were repeated at least two times and a representative experiment is presented in the plots; data points are an average of duplicate CFU/mL determinations within an experiment.

[4] = system: Acinetobacter baumannii strains; test: Broth macrodilution MICs under conditions used for synergy time-kill assays; type: cell-based; conditions: for MIC: Acinetobacter baumannii, read-out: Broth macrodilution MICs
Description: as §2, §1

[5] = system: S. aureus (MSSA, MRSA, VRSA); conditions: within 15 minutes to 2 hours, MRSA and VRSA; cited from earlier work
[6] = strain 2691748 (Non-MDR), agent alone, time-kill conditions
[7] = strain 2691818 (Non-MDR), agent alone, time-kill conditions
[8] = strain 2691999 (MDR), agent alone, time-kill conditions
[9] = strain 2692406 (MDR), agent alone, time-kill conditions
[10] = strain 2692650 (MDR), agent alone, time-kill conditions
[11] = strain 2693922 (MDR), agent alone, time-kill conditions
[12] = strain 2694038 (MDR), agent alone, time-kill conditions
[13] = strain 2694224 (MDR), agent alone, time-kill conditions
[14] = strain 2694227 (MDR), agent alone, time-kill conditions

Fold change in MIC (−P80/+P80) ([2]; strain 2691748 (Non-MDR)): 8
Colistin MIC −P80 ([2]; strain 2691748 (Non-MDR)): 4 µg/mL
Colistin MIC +P80 ([2]; strain 2691748 (Non-MDR)): 0.5 µg/mL
Fold change in MIC (−P80/+P80) ([2]; strain 2691818 (Non-MDR)): 2
Colistin MIC −P80 ([2]; strain 2691818 (Non-MDR)): 2 µg/mL
Colistin MIC +P80 ([2]; strain 2691818 (Non-MDR)): 1 µg/mL
Fold change in MIC (−P80/+P80) ([2]; strain 2691999 (MDR)): 4
Colistin MIC −P80 ([2]; strain 2691999 (MDR)): 1 µg/mL
Colistin MIC +P80 ([2]; strain 2691999 (MDR)): 0.25 µg/mL
Fold change in MIC (−P80/+P80) ([2]; strain 2692406 (MDR)): 16
Colistin MIC −P80 ([2]; strain 2692406 (MDR)): 2 µg/mL
Colistin MIC +P80 ([2]; strain 2692406 (MDR)): 0.125 µg/mL
Fold change in MIC (−P80/+P80) ([2]; strain 2692650 (MDR)): 4
Colistin MIC −P80 ([2]; strain 2692650 (MDR)): 0.5 µg/mL
Colistin MIC +P80 ([2]; strain 2692650 (MDR)): 0.125 µg/mL
Fold change in MIC (−P80/+P80) ([2]; strain 2692721 (MDR)): 4
Colistin MIC −P80 ([2]; strain 2692721 (MDR)): 1 µg/mL
Colistin MIC +P80 ([2]; strain 2692721 (MDR)): 0.25 µg/mL
Fold change in MIC (−P80/+P80) ([2]; strain 2693922 (MDR)): 4
Colistin MIC −P80 ([2]; strain 2693922 (MDR)): 0.5 µg/mL
Colistin MIC +P80 ([2]; strain 2693922 (MDR)): 0.125 µg/mL
Fold change in MIC (−P80/+P80) ([2]; strain 2694038 (MDR)): 4
Colistin MIC −P80 ([2]; strain 2694038 (MDR)): 1 µg/mL
Colistin MIC +P80 ([2]; strain 2694038 (MDR)): 0.25 µg/mL
Fold change in MIC (−P80/+P80) ([2]; strain 2694224 (MDR)): 4
Colistin MIC −P80 ([2]; strain 2694224 (MDR)): 1 µg/mL
Colistin MIC +P80 ([2]; strain 2694224 (MDR)): 0.25 µg/mL
Fold change in MIC (−P80/+P80) ([2]; strain 2694227 (MDR)): 8
Colistin MIC −P80 ([2]; strain 2694227 (MDR)): 1 µg/mL
Colistin MIC +P80 ([2]; strain 2694227 (MDR)): 0.125 µg/mL
Fold change in MIC (−P80/+P80) ([2]; strain ATCC 19609 (Non-MDR)): 4
Colistin MIC −P80 ([2]; strain ATCC 19609 (Non-MDR)): 1 µg/mL
Colistin MIC +P80 ([2]; strain ATCC 19609 (Non-MDR)): 0.25 µg/mL
Structure (SMILES): CCC(C)CCCC(=O)N[C@H](CCN)C(=O)N[C@H](C(=O)N[C@@H](CCN)C(=O)N[C@H]1CCNC(=O)[C@H]([C@@H](C)O)NC(=O)[C@H](CCN)NC(=O)[C@H](CCN)NC(=O)[C@H](CC(C)C)NC(=O)[C@@H](CC(C)C)NC(=O)[C@H](CCN)NC1=O)[C@@H](C)O (stereo in doubt) [COL, Colistin]
MIC ([1]; ATCC19609, strain ATCC 19609 (Non-MDR), agent alone, time-kill conditions, read-out: Broth macrodilution MICs): 0.25 µg/mL
Concentrations that yielded synergy in time-kill ([3]; strain 2691748 (Non-MDR)): 1 µg/mL
Concentrations that yielded synergy in time-kill ([3]; strain 2691818 (Non-MDR)): 0.12 µg/mL
Concentrations that yielded synergy in time-kill ([3]; strain 2691999 (MDR)): 0.12 µg/mL
Concentrations that yielded synergy in time-kill ([3]; strain 2692406 (MDR)): 0.12 µg/mL
Concentrations that yielded synergy in time-kill ([3]; strain 2692650 (MDR)): 0.12 µg/mL
Concentrations that yielded synergy in time-kill ([3]; strain 2692721 (MDR)): 0.12 µg/mL
Concentrations that yielded synergy in time-kill ([3]; strain 2693922 (MDR)): 0.12 µg/mL
Concentrations that yielded synergy in time-kill ([3]; strain 2694038 (MDR)): 0.06 µg/mL
Concentrations that yielded synergy in time-kill ([3]; strain 2694224 (MDR)): 0.12 µg/mL
Concentrations that yielded synergy in time-kill ([3]; strain 2694227 (MDR)): 0.12 µg/mL
Concentrations that yielded synergy in time-kill ([3]; strain ATCC 19609 (Non-MDR)): 0.06 µg/mL
MIC [4, 6]: > 16 µg/mL
MIC [4, 7]: 0.25 µg/mL
MIC [4, 8]: 1 µg/mL
MIC [4, 9]: 0.25 µg/mL
MIC [4, 10]: 0.25 µg/mL
MIC ([4]; strain 2692721 (MDR), agent alone, time-kill conditions): 0.5 µg/mL
MIC [4, 11]: 0.5 µg/mL
MIC [4, 12]: 0.12 µg/mL
MIC [4, 13]: 0.5 µg/mL
MIC [4, 14]: 0.5 µg/mL

Structure (SMILES): CN[C@H](CC(C)C)C(=O)N[C@H]1C(=O)N[C@@H](CC(N)=O)C(=O)N[C@H]2C(=O)N[C@H]3C(=O)N[C@H](C(=O)N[C@H](C(=O)O)c4cc(O)cc(O)c4-c4cc3ccc4O)[C@H](O[C@H]3C[C@](C)(N)[C@@H](O)[C@H](C)O3)c3ccc(c(Cl)c3)Oc3cc2cc(c3O[C@@H]2O[C@H](CO)[C@@H](O)[C@H](O)[C@H]2O[C@H]2C[C@](C)(NCc3ccc(-c4ccc(Cl)cc4)cc3)[C@@H](O)[C@H](C)O2)Oc2ccc(cc2Cl)[C@H]1O [ORI, Oritavancin]
MIC ([1]; ATCC19609, read-out: Broth macrodilution MICs): > 8 µg/mL
Reduction of exponentially-growing S. aureus (rapidity of bactericidal activity) [5]: ≥ 3 log
Concentrations that yielded synergy in time-kill ([3]; strain 2691748 (Non-MDR)): 8 µg/mL
Concentrations that yielded synergy in time-kill ([3]; strain 2691818 (Non-MDR)): 4 µg/mL
Concentrations that yielded synergy in time-kill ([3]; strain 2691999 (MDR)): 4 µg/mL
Concentrations that yielded synergy in time-kill ([3]; strain 2692406 (MDR)): 4 µg/mL
Concentrations that yielded synergy in time-kill ([3]; strain 2692650 (MDR)): 4 µg/mL
Concentrations that yielded synergy in time-kill ([3]; strain 2692721 (MDR)): 4 µg/mL
Concentrations that yielded synergy in time-kill ([3]; strain 2693922 (MDR)): 4 µg/mL
Concentrations that yielded synergy in time-kill ([3]; strain 2694038 (MDR)): 4 µg/mL
Concentrations that yielded synergy in time-kill ([3]; strain 2694224 (MDR)): 4 µg/mL
Concentrations that yielded synergy in time-kill ([3]; strain 2694227 (MDR)): 4 µg/mL
Concentrations that yielded synergy in time-kill ([3]; strain ATCC 19609 (Non-MDR)): 4 µg/mL
MIC [4]: > 8 µg/mL
Broth macrodilution MICs [4, 6]: >8 µg/mL
Broth macrodilution MICs [4, 7]: >8 µg/mL
Broth macrodilution MICs [4, 8]: >8 µg/mL
Broth macrodilution MICs [4, 9]: >8 µg/mL
Broth macrodilution MICs [4, 10]: >8 µg/mL
Broth macrodilution MICs [4, 11]: >8 µg/mL
Broth macrodilution MICs [4, 12]: >8 µg/mL
Broth macrodilution MICs [4, 13]: >8 µg/mL
Broth macrodilution MICs [4, 14]: >8 µg/mL
